Source: patent publication US10837062B2, “Method for predicting a treatment response to a CRHR1 antagonist and/or a V1B antagonist in a patient with depressive and/or anxiety symptoms” (Max-Planck-Gesellschaft zur Förderung der Wissenschaften …, priority 2013, dated 2020)

What was measured:
control littermates (CL) [1] = assay: REMS activity by EEG/EMG sleep recording in control littermates (CL) of Cor26 CRH mice; format: in vivo; conditions: CL animals of Cor26 CRH line; 50 mg/kg/d via drinking water
Protocol: (§1) Experiments were conducted with two different mouse lines of excessive central CRH secretion and their respective control littermates (CL). Mice of the CRH-COE^CNS line are characterised by CRH-overexpression within the whole CNS, whereas mice of the Cor26 CRH line display a CRH-overexpression specific to CRH-ergic neurons of the CNS. Three different CRHR1 antagonists were tested. […] In all cases, animals were left to recover from EEG/EMG-electrode implantation for two weeks, after which two days of baseline recording were initiated. Treatment with CRH-R1 antagonist or respective vehicle control commenced thereafter for five consecutive days. Antagonists were applied through the drinking water at a daily dose of 50 mg/kg body weight. EEG and EMG recordings were manually scored as wake, non-REMS (NREMS), and REMS in four second epochs by an experienced evaluator.

Cor26 CRH mice = assay: REMS activity by EEG/EMG sleep recording in Cor26 CRH mice; conditions: for REMS levels / REMS activity: CRH-overexpressing Cor26 CRH mice, 50 mg/kg/d via drinking water
control littermates (CL) [2] = assay: REMS activity by EEG/EMG sleep recording in control littermates (CL) of CRH-COE^CNS mice; format: in vivo; conditions: CL mice of CRH-COE^CNS line; 50 mg/kg/d via drinking water
Protocol: as §1

CRH-COE^CNS mice = assay: REMS activity by EEG/EMG sleep recording in CRH-COE^CNS mice; conditions: for REMS activity: 50 mg/kg/d via drinking water, treatment days vs baseline, significant from treatment day two (DMP-696 P<0.05; SSR125543 P≤0.035)

CCC(CC)Oc1cc(C)nc(Oc2c(C)cc(C)cc2C)c1C [CP-316,311]
REMS levels in control littermates (control littermates (CL) [1]): no significant effect | REMS levels / REMS activity (Cor26 CRH mice; 50 mg/kg/day): weak | REMS levels / REMS activity (Cor26 CRH mice; listed as CP-316311, 50 mg/kg/day): suppressed | REMS levels, area under the curve (AUC) within the light period (Cor26 CRH mice; Cor26 CRH mice, baseline vs treatment day three, P=0.006): significant decrease

COCC(COC)Nc1nc(C)nc2c(-c3ccc(Cl)cc3Cl)c(C)nn12 [DMP-696]
REMS activity in control littermates (control littermates (CL) [2]): only a mild suppression | treatment day of strongest suppression of REMS activity (CRH-COE^CNS mice; CRH-COE^CNS animals, 50 mg/kg/d): treatment day three | REMS suppression relative to baseline REMS-levels of CL (CRH-COE^CNS mice; CRH-COE^CNS mice, 50 mg/kg/d): never exceeded baseline REMS-levels of CL | REMS activity (CRH-COE^CNS mice; CRH-COE^CNS mice, 50 mg/kg/day): significant decrease | REMS activity (CRH-COE^CNS mice; CRH-COE^CNS mice, listed as DMP696, 50 mg/kg/day): suppressed
